Data on 22 molecules can be found in paper PMC3805590, “Isozyme-Specific Ligands for O-acetylserine sulfhydrylase, a Novel Antibiotic Target” (PLoS ONE, 2013).

Molecules are shown by their SMILES. Several values for one entry are separate records, joined by “and”; a condition that tells them apart may be missing. Identical values can stand only once.

One experiment addresses T1, OASS-B (Salmonella typhimurium, UniProt P29848).
T1 construct: OASS-A and OASS-B were expressed and purified as previously described; made in house
Description: Ligand binding affinity to OASS-B by PLP fluorescence titration. Particulars: PLP fluorescence at 500 nm, excitation 412 nm, 100 mM Hepes pH 7.0, 20 °C. The method, then: (§1) OASS-A and OASS-B were expressed and purified as previously described. The binding affinity of selected ligands to OASS-A and OASS-B was determined by monitoring the increase in fluorescence emission of the bound PLP at 500 nm following excitation at 412 nm, [55]. Emission spectra were collected at increasing ligand concentrations in the presence of 0.05–1 µM OASS, 100 mM Hepes buffer, pH 7.0 at 20°C. DMSO and/or potassium hydroxide were added when needed to solubilize the compounds and pH was checked to be between 7 and 8.5. Spectra were corrected for the buffer contribution. Fluorescence measurements were carried out using a FluoroMax-3 fluorometer (HORIBA-Jobin Yvon), equipped with a thermostated cell-holder.
(§2) The dependence of fluorescence intensity at 500 nm on ligand concentration was fitted to a binding isotherm: [drawing 1] (1) where I is the fluorescence intensity at 500 nm in the presence of the ligand, I0 is the fluorescence intensity in the absence of ligand, Imax is the maximum fluorescence change at saturating ligand concentrations, [L] is the ligand concentration, and Kd is the dissociation constant of the OASS-ligand complex. This measurement is a direct determination of ligand dissociation constant in the absence of substrate, thus it coincides with Ki, independently from the inhibition mechanism.
(§3) A total of 12 compounds for OASS-A (Table 1) and 11 compounds for OASS-B (Table 2) predicted to be potential ligands were experimentally tested by determining their dissociation constants exploiting PLP fluorescence changes as a function of ligand concentration. The observed increases in coenzyme fluorescence and the concomitant blue shifts of the peaks upon ligand binding result from the closure of the active site – thus altering the coenzyme microenvironment, [55]. It is important to point out that the evaluated dissociation constants for these compounds correspond to their inhibition constants, Ki, because they occupy the enzyme active site, [19], and, therefore, are purely competitive inhibitors.

For another experiment, the target named is T2, OASS-A (Salmonella typhimurium, UniProt P0A1E3).
T2 construct: OASS-A and OASS-B were expressed and purified as previously described; made in house
T2 sequence (P0A1E3 whole entry): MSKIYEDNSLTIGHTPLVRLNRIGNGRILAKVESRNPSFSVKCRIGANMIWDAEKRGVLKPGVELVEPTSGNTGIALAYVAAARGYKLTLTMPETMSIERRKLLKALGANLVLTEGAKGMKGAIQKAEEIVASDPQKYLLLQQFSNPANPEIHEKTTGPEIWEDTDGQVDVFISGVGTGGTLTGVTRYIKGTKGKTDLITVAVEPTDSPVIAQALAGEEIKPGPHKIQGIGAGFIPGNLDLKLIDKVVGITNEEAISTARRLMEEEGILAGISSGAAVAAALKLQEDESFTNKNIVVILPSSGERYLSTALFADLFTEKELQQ
Description: Ligand binding affinity to OASS-A by PLP fluorescence titration. Particulars: for Kd: PLP fluorescence at 500 nm, excitation 412 nm, 100 mM Hepes pH 7.0, 20 °C. Here is the method: as §1, §2, §3

A further experiment relates to OASS. Description: Reaction or time-dependent inactivation of OASS by ligand. The experiment is classed as biochemical, Salmonella typhimurium. Particulars: under the paper's experimental conditions.
Experiment [1] concerns S. typhimurium knock-out for cysteine synthase. Details: method as in PMID 18957594. Particulars: cysteine synthase knock-out vs wild type; cited from earlier work.

T1 sequence (P29848 whole entry): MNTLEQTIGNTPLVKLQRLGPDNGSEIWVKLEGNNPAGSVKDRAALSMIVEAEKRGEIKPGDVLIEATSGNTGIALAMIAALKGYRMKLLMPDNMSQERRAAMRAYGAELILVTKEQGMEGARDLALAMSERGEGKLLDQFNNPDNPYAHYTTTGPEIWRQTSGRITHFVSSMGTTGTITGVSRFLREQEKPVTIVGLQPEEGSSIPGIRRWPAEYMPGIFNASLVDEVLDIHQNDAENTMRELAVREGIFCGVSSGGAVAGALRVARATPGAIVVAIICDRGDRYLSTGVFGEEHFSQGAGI

Consider `O=C(O)CNC(=O)CNC(=O)C1C2C=CC(C2)C1C(=O)O` (centres unmarked) [Compound 1], for which the Kd on OASS-B is 50 ± 5 µM; on OASS-A it was 3.8 µM and < 100 µM and 3.7 µM. Regarding `O=C(O)C1CC=CCC1C(=O)Nc1nncs1` (centres unmarked) [Compound 2], the Kd on OASS-B is over 1500 µM; at OASS-A, 82 ± 18 µM.

Consider `CC(C)C(NS(=O)(=O)c1cccs1)C(=O)O` (centres unmarked) [Compound 3], for which the Kd on OASS-B is over 1500 µM; on OASS-A, 95 ± 10 µM. `O=C(O)CC(C(=O)O)c1ccccc1` (centres unmarked) [Compound 4] returned a Kd on OASS-A of 103 ± 9 µM.

In the case of `O=C(O)C1CCCCN1S(=O)(=O)c1cccc([N+](=O)[O-])c1` (centres unmarked) [Compound 5], on OASS-A, the Kd was determined as 218 ± 61 µM. In turn, `O=C(O)C1CC=CCC1C(=O)NCc1ccncc1` (centres unmarked) [Compound 6] yielded a Kd on OASS-A of 283 ± 19 µM. On the same count and under the same terms, then `CC(C)CC(NC(=O)c1ccco1)C(=O)O` (centres unmarked) [Compound 7], with 558 ± 131 µM; and `CC1=C(C(=O)O)N2C(=O)C(NC(=O)c3nn(C)cc3[N+](=O)[O-])C2SC1` (centres unmarked) [Compound 8], with 732 ± 72 µM.

On to `O=C(NC(Cc1ccccc1)C(=O)O)c1ccco1` (centres unmarked) [Compound 9], for which, on OASS-A, the Kd is 1300 ± 400 µM.

As for `Cc1nnc(NC(=O)c2c(C(=O)O)cccc2[N+](=O)[O-])s1` [Compound 10], the Kd on OASS-A was over 1500 µM. With `O=C(O)c1ccoc1CN1CCOCC1` [Compound 11], the dissociation constant Kd at OASS-A was over 1500 µM. With `CC(C)CC(NC=C1C(=O)OC(C)(C)OC1=O)C(=O)O` (centres unmarked) [Compound 12], the Kd at OASS-A is over 1500 µM. Also, the “binding to OASS-A (in words)” value at OASS-A (fluorimetric titration) was “no binding was observed”. Take `O=C(O)/C=C(/Cl)CC(=O)O` [Compound 13]: the “reaction or time-dependent inactivation of OASS” value with OASS was “no reaction or time-dependent inactivation of OASS was observed”. In addition, the figures for the Kd on OASS-B and at OASS-A were 33 ± 2 µM and 29 ± 3 µM, respectively. As for `Cn1nnnc1Sc1ncccc1C(=O)O` [Compound 14], the Kd on OASS-B is 810 ± 110 µM; at OASS-A, over 1500 µM.

Molecule `O=C(O)CSc1nsc(SCC(=O)O)n1` [Compound 16] gave a Kd at OASS-B of over 1500 µM.

At OASS-B, `CC1(C)OC(=O)C(=CNC(CCC(=O)O)C(=O)O)C(=O)O1` (centres unmarked) [Compound 17] gave a Kd of over 1500 µM.

On to `CC1(C(=O)O)Cc2oncc2CC1C(=O)O` (centres unmarked) [Compound 18], for which the Kd at OASS-B is over 1500 µM. On to `O=C(O)CCN(CCC(=O)O)S(=O)(=O)c1ccccc1` [Compound 19], for which the Kd on OASS-B is over 1500 µM.

Molecule `CCC1([N+](=O)[O-])CN(CC(=O)O)CN(CC(=O)O)C1` [Compound 21] gave a Kd at OASS-B of over 1500 µM.

In turn, `C[S+]([O-])CCC(NS(=O)(=O)c1ccccc1)C(=O)O` (centres unmarked) [Compound 22] returned a Kd on OASS-B of over 1500 µM. The molecule `CCn1ncc([N+](=O)[O-])c1C(=O)O` [Compound 23] yielded a dissociation constant Kd on OASS-B of over 1500 µM. For `O=C(O)c1cn(C2CC2)c2cc(N3CCNCC3)c(F)cc2c1=O` [ciprofloxacin], in experiment [1], the “MIC lower than wild type bacterium” value is 500 fold.
